The source made the active and inactive calls. No cut-off for these calls is given here.
Legend:
HT-29 = assay: Antiproliferative activity against human HT-29 cells after 2 days by MTT assay; type: functional, cell-based; details: HT-29, 48 h
MCF7 = assay: Antiproliferative activity against human MCF7 cells after 2 days by MTT assay; type: functional, cell-based; details: MCF7, 48 h
HeLa = assay: Antiproliferative activity against human HeLa cells after 2 days by MTT assay; type: functional, cell-based; details: 48 h
A549 [1] = assay: Antiproliferative activity against human A549 cells after 2 days by MTT assay; type: functional, cell-based; details: A549, 48 h
HL-60 = assay: Antiproliferative activity against human HL60 cells after 2 days by MTT assay; type: functional, cell-based; details: HL-60, 48 h
HMEC-1 [2] = assay: Antiproliferative activity against HMEC1 cells after 2 days by MTT assay; type: functional, cell-based; details: Homo sapiens, HMEC-1, 48 h
HEK293 = assay: Antiproliferative activity against HEK293 cells after 2 days by MTT assay; type: cell-based; details: Homo sapiens, HEK293, 48 h
MDA-MB-231 [3] = assay: Antiproliferative activity against human MDA-MB-231 cells after 3 days by coulter counting method; type: functional, cell-based; details: MDA-MB-231, 72 h
[4] = Selectivity index, ratio of IC50 for antiproliferative activity against HEK293 cells to IC50 for antiproliferative activity against human MCF7 cells; type: toxicity, cell-based; details: HEK293 cells versus MCF7 cells, read-out: Ratio IC50
[5] = Selectivity index, ratio of IC50 for antiproliferative activity against HEK293 cells to IC50 for antiproliferative activity against human HT-29 cells; type: toxicity, cell-based; details: HEK293 cells versus HT-29 cells, read-out: Ratio IC50
[6] = Selectivity index, ratio of IC50 for antiproliferative activity against HEK293 cells to IC50 for antiproliferative activity against human HeLa cells; type: toxicity, cell-based; details: HEK293 cells versus HeLa cells, read-out: Ratio IC50
[7] = Selectivity index, ratio of IC50 for antiproliferative activity against HEK293 cells to IC50 for antiproliferative activity against human HL60 cells; type: toxicity, cell-based; details: HEK293 cells versus HL60 cells, read-out: Ratio IC50
A549 [8] = assay: Cell cycle arrest in human A549 cells assessed as accumulation at sub-G0 phase at 200 nM after 20 hrs by propidium iodide staining based flow cytometry (reference value: 6.6 +/- 0.1%); type: functional
A549 [9] = assay: Cell cycle arrest in human A549 cells assessed as accumulation at G0/G1 phase at 200 nM after 20 hrs by propidium iodide staining based flow cytometry (reference value: 66 +/- 1%); type: functional
A549 [10] = assay: Cell cycle arrest in human A549 cells assessed as accumulation at S phase at 200 nM after 20 hrs by propidium iodide staining based flow cytometry (reference value: 16 +/- 1%); type: functional
A549 [11] = assay: Cell cycle arrest in human A549 cells assessed as accumulation at G2/M phase at 200 nM after 20 hrs by propidium iodide staining based flow cytometry (reference value: 11 +/- 1%); type: functional
A549 [12] = assay: Disruption of microtubule network in human A549 cells assessed as appearance of tubulin aggregates at 260 nM after 16 hrs by Hoechst staining based immunofluorescence assay; type: cell-based
A549 [13] = assay: Disruption of microtubule network in human A549 cells assessed as appearance of compressed and fragmented nuclei at 260 nM after 16 hrs by Hoechst staining based immunofluorescence assay; type: cell-based
A549 [14] = assay: Cell cycle arrest in human A549 cells assessed as accumulation at sub-G0 phase at 65 nM after 20 hrs by propidium iodide staining based flow cytometry (reference value: 6.6 +/- 0.1%); type: functional
A549 [15] = assay: Cell cycle arrest in human A549 cells assessed as accumulation at G0/G1 phase at 65 nM after 20 hrs by propidium iodide staining based flow cytometry (reference value: 66 +/- 1%); type: functional
A549 [16] = assay: Cell cycle arrest in human A549 cells assessed as accumulation at S phase at 65 nM after 20 hrs by propidium iodide staining based flow cytometry (reference value: 16 +/- 1%); type: functional
A549 [17] = assay: Cell cycle arrest in human A549 cells assessed as accumulation at G2/M phase at 65 nM after 20 hrs by propidium iodide staining based flow cytometry (reference value: 11 +/- 1%); type: functional
A549 [18] = assay: Cell cycle arrest in human A549 cells assessed as accumulation at sub-G0 phase at 750 nM after 20 hrs by propidium iodide staining based flow cytometry (reference value: 6.6 +/- 0.1%); type: functional
A549 [19] = assay: Cell cycle arrest in human A549 cells assessed as accumulation at S phase at 750 nM after 20 hrs by propidium iodide staining based flow cytometry (reference value: 16 +/- 1%); type: functional
A549 [20] = assay: Cell cycle arrest in human A549 cells assessed as accumulation at G2/M phase at 750 nM after 20 hrs by propidium iodide staining based flow cytometry (reference value: 11 +/- 1%); type: functional
MDA-MB-231 [21] = assay: Inhibition of EBI binding to beta-tubulin colchicine binding site in human MDA-MB-231 cells at 3 uM preincubated for 16 hrs followed by EBI addition and measured after 1.5 hrs by Western blot analysis; type: cell-based
A549 [22] = assay: Cell cycle arrest in human A549 cells assessed as accumulation at sub-G0 phase at 80 nM after 20 hrs by propidium iodide staining based flow cytometry (reference value: 6.6 +/- 0.1%); type: functional
A549 [23] = assay: Cell cycle arrest in human A549 cells assessed as accumulation at G0/G1 phase at 80 nM after 20 hrs by propidium iodide staining based flow cytometry (reference value: 66 +/- 1%); type: functional
A549 [24] = assay: Cell cycle arrest in human A549 cells assessed as accumulation at S phase at 80 nM after 20 hrs by propidium iodide staining based flow cytometry (reference value: 16 +/- 1%); type: functional
A549 [25] = assay: Cell cycle arrest in human A549 cells assessed as accumulation at G2/M phase at 80 nM after 20 hrs by propidium iodide staining based flow cytometry (reference value: 11 +/- 1%); type: functional
A549 [26] = assay: Induction of apoptosis in human A549 cells at 100 nM after 24 hrs by Annexin V-FITC/propidium iodide staining based flow cytometry (reference value: 28%); type: functional
A549 [27] = assay: Induction of apoptosis in human A549 cells at 10 nM after 24 hrs by Annexin V-FITC/propidium iodide staining based flow cytometry (reference value: 28%); type: functional
HMEC-1 [28] = assay: Vascular disruptive activity in HMEC1 cells assessed as disruption of preformed tubular networks after 4 hrs by matrigel based assay; type: functional, cell-based; details: Homo sapiens
A549 [29] = assay: Induction of apoptosis in human A549 cells after 24 hrs by Annexin V-FITC/propidium iodide staining based flow cytometry; type: functional, cell-based
Bos taurus [30] = organism: Bos taurus; assay: Inhibition of calf brain tubulin polymerization after 60 mins by turbidimetric method
A549 [31] = assay: Cell cycle arrest in human A549 cells assessed as accumulation at sub-G0 phase at 70 nM after 20 hrs by propidium iodide staining based flow cytometry (reference value: 6.6 +/- 0.1%); type: functional
A549 [32] = assay: Cell cycle arrest in human A549 cells assessed as accumulation at S phase at 70 nM after 20 hrs by propidium iodide staining based flow cytometry (reference value: 16 +/- 1%); type: functional
A549 [33] = assay: Cell cycle arrest in human A549 cells assessed as accumulation at G2/M phase at 70 nM after 20 hrs by propidium iodide staining based flow cytometry (reference value: 11 +/- 1%); type: functional
A549 [34] = assay: Cell cycle arrest in human A549 cells assessed as accumulation at sub-G0 phase at 75 nM after 20 hrs by propidium iodide staining based flow cytometry (reference value: 6.6 +/- 0.1%); type: functional
A549 [35] = assay: Cell cycle arrest in human A549 cells assessed as accumulation at G0/G1 phase at 75 nM after 20 hrs by propidium iodide staining based flow cytometry (reference value: 66 +/- 1%); type: functional
A549 [36] = assay: Cell cycle arrest in human A549 cells assessed as accumulation at S phase at 75 nM after 20 hrs by propidium iodide staining based flow cytometry (reference value: 16 +/- 1%); type: functional
A549 [37] = assay: Cell cycle arrest in human A549 cells assessed as accumulation at G2/M phase at 75 nM after 20 hrs by propidium iodide staining based flow cytometry (reference value: 11 +/- 1%); type: functional
Bos taurus [38] = organism: Bos taurus; assay: Inhibition of calf brain tubulin polymerization in glycerol-assembly buffer assessed as critical concentration for tubulin assembly at 27.5 uM measured every 30 secs for 2 hrs in presence of GTP
A549 [39] = assay: Cell cycle arrest in human A549 cells assessed as accumulation at sub-G0 phase at 50 nM after 20 hrs by propidium iodide staining based flow cytometry (reference value: 6.6 +/- 0.1%); type: functional
A549 [40] = assay: Cell cycle arrest in human A549 cells assessed as accumulation at G0/G1 phase at 50 nM after 20 hrs by propidium iodide staining based flow cytometry (reference value: 66 +/- 1%); type: functional
A549 [41] = assay: Cell cycle arrest in human A549 cells assessed as accumulation at S phase at 50 nM after 20 hrs by propidium iodide staining based flow cytometry (reference value: 16 +/- 1%); type: functional
A549 [42] = assay: Cell cycle arrest in human A549 cells assessed as accumulation at G2/M phase at 50 nM after 20 hrs by propidium iodide staining based flow cytometry (reference value: 11 +/- 1%); type: functional

Compound	IC50 (HT-29) [nM]	IC50 (MCF7) [nM]	IC50 (HeLa) [nM]	IC50 (A549 [1]) [nM]	IC50 (HL-60) [nM]	IC50 (HMEC-1 [2]) [nM]	IC50 (HEK293) [nM]	IC50 (MDA-MB-231 [3]) [nM]	selectivity ratio [4]	selectivity ratio [5]	selectivity ratio [6]	selectivity ratio [7]	inhibition (MDA-MB-231 [21])	Activity (A549 [26]) [%]	Activity (A549 [27]) [%]	Activity (A549 [29])	also measured
COc1ccc(/C=C\c2cc(OC)c(OC)c(OC)c2)cc1NC(=O)Oc1ccc(F)cc1	60	95.4	60	400	50	65	185	13.8	2 to 11	2 to 11	2 to 11	2 to 11					Activity (A549 [8]): 21%; Activity (A549 [9]): 26%; Activity (A549 [10]): 19%; Activity (A549 [11]): 34%
COc1ccc(/C=C\c2cc(OC)c(OC)c(OC)c2)cc1NC(=O)Oc1cccc(C(F)(F)F)c1	13	56	40	130	4	16	42.2	14.2									Activity (A549 [12]): Active; Activity (A549 [13]): Active; Activity (A549 [14]): 16%; Activity (A549 [15]): 28%; Activity (A549 [16]): 15%; Activity (A549 [17]): 41%
COc1ccc(/C=C\c2cc(OC)c(OC)c(OC)c2)cc1NC(=O)Oc1cc(C)cc(C)c1	260	210	130	1540	620	180	150	12									Activity (A549 [18]): 22%; Activity (A549 [19]): 16%; Activity (A549 [20]): 38%
COc1cc2c(c(OC)c1OC)-c1ccc(OC)c(=O)cc1[C@@H](NC(C)=O)CC2													Active				
COc1cccc(OC(=O)Nc2cc(/C=C\c3cc(OC)c(OC)c(OC)c3)ccc2OC)c1	4.8	7.18	3.4	160	4.9	5	8.1	8					Active	92	49	Dose-dependent effect	Activity (A549 [22]): 17%; Activity (A549 [23]): 31%; Activity (A549 [24]): 16%; Activity (A549 [25]): 36%; Activity (HMEC-1 [28]): Dose-dependent effect
COc1ccc(/C=C\c2cc(OC)c(OC)c(OC)c2)cc1NC(=O)Oc1ccc(Cl)c(C)c1	11.4	8.1	3.3	140	0.4	7	8.4	4					Active	90	41	Dose-dependent effect	inhibition (Bos taurus [30]): Active; Activity (A549 [31]): 18%; Activity (A549 [32]): 22%; Activity (A549 [33]): 36%; Activity (HMEC-1 [28]): Dose-dependent effect
COc1ccc(/C=C\c2cc(OC)c(OC)c(OC)c2)cc1NC(=O)Oc1ccc(Br)cc1	3.5	0.75	1.2	150	5	7	19	4.07	2 to 11	2 to 11	2 to 11	2 to 11	Active	95	36	Dose-dependent effect	Activity (A549 [34]): 19%; Activity (A549 [35]): 32%; Activity (A549 [36]): 17%; Activity (A549 [37]): 33%; Activity (HMEC-1 [28]): Dose-dependent effect
COc1ccc(/C=C\c2cc(OC)c(OC)c(OC)c2)cc1NC(=O)Oc1cccc(C)c1	46	25	23	390	67	50	40	13.6									Activity (A549 [8]): 22%; Activity (A549 [9]): 26%; Activity (A549 [10]): 16%; Activity (A549 [11]): 36%
COc1ccc(/C=C\c2cc(OC)c(OC)c(OC)c2)cc1O [COMBRETASTATIN A4]			2100	130	4000	3400											inhibition (Bos taurus [30]): Active; Activity (Bos taurus [38]): 22 µM; Activity (A549 [39]): 15%; Activity (A549 [40]): 21%; Activity (A549 [41]): 22%; Activity (A549 [42]): 43%
COc1ccc(/C=C\c2cc(OC)c(OC)c(OC)c2)cc1NC(=O)Oc1ccccc1Cl	17.8	10.1	5	130	3.7	50	41	13.8	2 to 11	2 to 11	2 to 11	2 to 11					Activity (A549 [12]): Active; Activity (A549 [13]): Active; Activity (A549 [14]): 16%; Activity (A549 [15]): 29%; Activity (A549 [16]): 12%; Activity (A549 [17]): 43%
COc1ccc(/C=C\c2cc(OC)c(OC)c(OC)c2)cc1NC(=O)Oc1cccc(Br)c1	11.3	5.9	2.6	160	5.6	12	16	13.4	2 to 11	2 to 11	2 to 11	2 to 11		90	51	Dose-dependent effect	inhibition (Bos taurus [30]): Active; Activity (A549 [22]): 17%; Activity (A549 [23]): 30%; Activity (A549 [24]): 12%; Activity (A549 [25]): 39%

From ChEMBL document CHEMBL4145540 (Eur J Med Chem, 2018)
